Assays:
[1] = system: DU-145 prostate cancer cells; experiment: Cell viability crystal violet assay; format: cell-based, Homo sapiens; details: rocaglamide at concentrations higher than 6 μM
Method: The cell viability of DU-145 prostate cancer cells was evaluated after treatment with 1, 2, and the positive control rocaglamide using the protocol from a Phospho-NF-kappaBp65 (S468 + S536) and Total In-Cell ELISA Kit (ab207482) (Abcam Inc., Waltham, MA, USA), after initial PhosphoNF-κBp65 translocation steps (Section 4.11).

[2] = system: HT-29 human colon cancer cells; details: nanomolar range; cited from earlier work
[3] = SRB cell cytotoxicity assay; format: cell-based, Homo sapiens; details: human, DU-145 prostate cancer cells; DU-145; Supplementary Figure S7; read-out: cytotoxic concentration in vitro (IC50)
Method: (§1) The antiproliferative effects of 1, the chemopreventive control 2, and the positive control paclitaxel were measured using a sulforhodamine B (SRB) cytotoxicity assay. Briefly, DU-145 prostate cancer cells (5 × 10^4 cells/well) were seeded in a 96-well plate overnight. Then, the cells were treated at different concentrations ranging from 0 to 150 μM with each test compound for 24, 48, and 72 h (Supplementary Figure S7). After being treated, the cells were incubated with cold trichloroacetic acid (20%, 30 min), washed with tap water, stained with SRB (0.4%, 30 min), and washed subsequently with acetic acid (1%). Finally, the unbound dye was solubilized using 200 μL of Tris-base (10 mM) and the absorbance read at 515 nm using a FLUOstar Optima microplate reader (BMG Labtech Inc., Durham, NC, USA). The percent inhibition was determined by using the formula provided in the prior publication.

[4] = system: DU-145 prostate cancer cells; experiment: SRB cell cytotoxicity assay; format: cell-based, Homo sapiens; details: DU-145 human prostate cancer cells
Method: as §1

[5] = system: Hepa1c1c7 mouse hepatoma cells; experiment: Cell oxidative stress real-time dose–response assay (ROS, DCFH-DA); format: cell-based
Method: A reactive oxygen species (ROS) assay was performed following a previously described procedure. The generated intracellular levels of ROS were measured using the fluorescent probe 2′,7′-dichlorodihydrofluorescein diacetate (DCFH-DA). Hepa1c1c7 mouse hepatoma cells were seeded in a 96-well plate, treated with 1, 2, or the positive control rocaglamide, followed by 5 h incubation at 37 °C with 5% CO2. Subsequently, cells were incubated with H2O2 (1.25 mM) and FeSO4 for 30 min at 37 °C. Later, the fluorescent probe DCFH-DA was added to determine intracellular ROS. Fluorescence was measured using a FLUOstar Optima fluorescence plate reader (BMG Labtech Inc., Durham, NC, USA) at an excitation wavelength of 485 nm and emission wavelength of 530 nm. All treatments performed in triplicate were representative of at least two different experiments.

[6] = system: phosphoNF-κBp65 in DU-145 prostate cancer cells; experiment: PhosphoNF-κBp65 assay (In-Cell ELISA); format: cell-based, Homo sapiens
Method: PhosphoNF-κBP65 phosphorylation levels were evaluated using the protocol from an Abcam Phospho-NF-kappaBp65 ([…] + […]) + Total In-Cell ELISA Kit (ab207482) (Abcam Inc., Waltham, MA, USA). The effects of 1, the natural product chemopreventive positive control 2, and a rocaglamide positive control in the PhosphoNF-κBp65 assay activity were measured using a FLUOstar Optima plate reader. DU-145 or Hepa1c1c7 cells (5 × 10^4 cells/well) were seeded in a white 96-well plate and treated (0-150 μM) for 5 h. Afterwards, luminescence was measured using a FLUOstar Optima plate reader.

zebrafish (Danio rerio) = experiment: Toxicity assay in zebrafish; details: for morphological changes / developmental abnormalities: tamoxifen 50 μM at 48 h, 1 100 μM at 48 h, 2 100 μM at 24 h
Method: Animals were provided by the Department of Neuroscience at The Ohio State University (OSU) (OSU IACUC-approved animal protocol number 2014A00000006-R1-AR1). Zebrafish embryos were housed in aquaculture water at 28 °C with a 14 h/10 h light/dark cycle. After 24 h post fertilization (hpf), groups of random embryos were exposed to different concentrations (0, 50, or 100 μM, n = 25) for 24 and 48 h. Then, images of the zebrafish were taken using an Axiovert 40 CFL Zeiss microscope and ProgRes C10 plus camera. Morphological changes in zebrafish development were determined and recorded.

## COc1ccc([C@@]23Oc4cc(OC)cc(OC)c4[C@]2(O)[C@H](O)[C@H](C(=O)N(C)C)[C@H]3c2ccccc2)cc1 [Rocaglamide, reference compound]
[1]
  cell viability (crystal violet): maintained the same level of cell viability

## C/C=C/c1cc(OC)c2c(c1)[C@@H](C)[C@H](c1cc(OC)c(OC)c(OC)c1)O2 [licarin C]
[2]
  cytotoxicity: potently cytotoxic

## C/C=C/c1cc(OC)c2c(c1)[C@H](C)[C@@H](c1ccc(O)c(OC)c1)O2 [compound 1, licarin A]
[3]
  IC50: 100 µM
[4]
  growth inhibitory activity: did not produce any discernible growth inhibitory activity
[1]
  cell viability (crystal violet): remained alive and proliferated, but in a controlled manner
[5]; Hepa1c1c7
  effective concentration for oxidative control: 48 nM
[6]
  effective concentration for inducing NF-κB phosphorylation: 9.6 nM
Zebrafish (Danio rerio); 48 h exposure, tamoxifen 50 μM, 1 and 2 100 μM, mean ± SEM
  % survival: 100%
Zebrafish (Danio rerio)
  morphological changes / developmental abnormalities: lack of morphological changes

## O=C(/C=C/c1ccc(O)cc1)c1ccc(O)cc1O [compound 2, Isoliquiritigenin, reference compound]
[5]; 48 nM, assay duration 60 min
  duration of reduction in cellular stress (time until activity degrades): 30 min
Zebrafish (Danio rerio); 24 h exposure, tamoxifen 50 μM, 1 and 2 100 μM, mean ± SEM
  % of hatching: 100%
Zebrafish (Danio rerio)
  morphological changes / developmental abnormalities: curved spines or shortened tails

Reference: paper PMC11510329, “Molecular Networking, Docking, and Biological Evaluation of Licarin A from Myristica fragrans as a Potential Cancer Chemopreventive Agent” (Molecules, 2024)
